Data reported in patent publication US6703405B2, “Substituted 4-phenyltetrahydroisoquinolinium salts, process for their preparation, their use as a medicament, and medicament containing them” (Aventis Pharma Deutschland GmbH, priority 2001, dated 2004).
Where a name gives a salt, the structure may show the parent alone.

Molecular target: T1, rNHE3 (Rattus norvegicus, UniProt P26433)
T1 construct: expressed in transfected cells
Assay: recovery of intracellular pH (pHi) after acidification, BCECF fluorescence
Format: cell-based
Details: pH recovery recorded for three minutes with NHE3; bicarbonate-free conditions
Protocol: In this test, the recovery in the intracellular pH (pHi) after an acidification is ascertained, which is initiated if the NHE is capable of functioning, even under bicarbonate-free conditions. For this purpose, the pHi was determined using the pH-sensitive fluorescent dye BCECF (Calbiochem, the precursor BCECF-AM is employed). The cells were initially loaded with BCECF. The BCECF fluorescence was determined in a “Ratio Fluorescence Spectrometer” (Photon Technology International, South Brunswick, N.J., USA) at excitation wavelengths of 505 and 440 nm and an emission wavelength of 535 nm and converted into the pHi using calibration curves. The cells were incubated in NH4Cl buffer (pH 7.4) (NH4Cl buffer: 115 mM NaCl, 20 mM NH4Cl, 5 mM KCl, 1 mM CaCl2, 1 mM MgSO4, 20 mM Hepes, 5 mM glucose, 1 mg/ml BSA; a pH of 7.4 was adjusted with 1 M NaOH) even during the BCECF loading. The intracellular acidification was induced by adding 975 μl of an NH4Cl-free buffer (see below) to 25 μl aliquots of the cells incubated in NH4Cl buffer. The subsequent rate of pH recovery was recorded for two minutes with NHE1, five minutes with NHE2 and three minutes with NHE3. To calculate the inhibitory potency of the tested substances, the cells were initially investigated in buffers with which a complete or absolutely no pH recovery took place. For complete pH recovery (100%), the cells were incubated in Na^+-containing buffer (133.8 mM NaCl, 4.7 mM KCl, 1.25 mM CaCl2, 1.25 mM MgCl2, 0.97 mM Na2HPO4, 0.23 mM NaH2PO4, 5 mM Hepes, 5 mM glucose, a pH of 7.0 is adjusted with 1 M NaOH). To determine the 0% value, the cells were incubated in an Na^+-free buffer (133.8 mM choline chloride, 4.7 mM KCl, 1.25 mM CaCl2, 1.25 mM MgCl2, 0.97 mM K2HPO4, 0.23 mM KH2PO4, 5 mM Hepes, 5 mM glucose, a pH of 7.0 is adjusted with 1 M NaOH). The substances to be tested were made up in the Na^+-containing buffer. The recovery of the intracellular pH at each test concentration of a substance was expressed as a percentage of the maximum recovery. The IC50 value for the particular substance for the individual NHE subtypes was calculated from the pH recovery percentages using the Sigma-Plot program.

T1 sequence (P26433 29-831): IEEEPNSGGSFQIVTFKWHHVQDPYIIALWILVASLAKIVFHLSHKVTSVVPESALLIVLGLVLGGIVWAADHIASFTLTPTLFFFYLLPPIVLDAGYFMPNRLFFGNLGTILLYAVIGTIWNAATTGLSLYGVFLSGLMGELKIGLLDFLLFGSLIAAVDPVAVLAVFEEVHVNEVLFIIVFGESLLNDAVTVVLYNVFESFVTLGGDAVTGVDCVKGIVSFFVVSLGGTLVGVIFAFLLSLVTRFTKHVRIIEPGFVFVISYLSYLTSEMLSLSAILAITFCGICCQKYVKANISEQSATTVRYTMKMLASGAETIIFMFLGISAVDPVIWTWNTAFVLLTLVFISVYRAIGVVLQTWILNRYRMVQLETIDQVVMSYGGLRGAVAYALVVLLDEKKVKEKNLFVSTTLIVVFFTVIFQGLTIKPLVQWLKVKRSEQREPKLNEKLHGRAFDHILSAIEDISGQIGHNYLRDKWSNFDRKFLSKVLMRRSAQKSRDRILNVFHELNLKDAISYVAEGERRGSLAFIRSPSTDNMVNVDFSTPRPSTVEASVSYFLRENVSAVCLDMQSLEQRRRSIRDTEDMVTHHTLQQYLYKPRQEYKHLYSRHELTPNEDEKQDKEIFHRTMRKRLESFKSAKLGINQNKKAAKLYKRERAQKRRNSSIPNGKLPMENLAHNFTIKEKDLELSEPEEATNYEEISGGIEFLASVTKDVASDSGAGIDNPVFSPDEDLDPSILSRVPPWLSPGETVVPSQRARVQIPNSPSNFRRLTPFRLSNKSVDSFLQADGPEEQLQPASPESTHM

SMILES | IC50
C[N+]1(C)Cc2c(Cl)cc(Cl)cc2C(c2ccccc2)C1 (centres unmarked) [Example 1, 6,8-Dichloro-2,2-dimethyl-4-phenyl-1,2,3,4-tetrahydroisoquinolinium, trifluoroacetate] | 0.23 µM
C[N+]1(C)Cc2c(Cl)cc(Cl)cc2C(c2ccc(S(N)(=O)=O)cc2)C1 (centres unmarked) [Example 2, 6,8-Dichloro-2,2-dimethyl-4-(4-sulfamoylphenyl)-1,2,3,4-tetrahydroisoquinolinium, Trifluoroacetate] | 0.9 µM
CC(=O)Nc1ccc(C2C[N+](C)(C)Cc3c(Cl)cc(Cl)cc32)cc1 (centres unmarked) [Example 3a, 4-(4-Acetylaminophenyl)-6,8-dichloro-2,2-dimethyl-1,2,3,4-tetrahydroisoquinolinium iodide] | 0.67 µM

Continued, values first:

IC50 | SMILES
0.03 µM | C[N+]1(C)Cc2c(Cl)cc(Cl)cc2C(c2ccc(N)cc2)C1 (centres unmarked) [Example 4, 4-(4-Aminophenyl)-6,8-dichloro-2,2-dimethyl-1,2,3,4-tetrahydroisoquinolinium chloride, hydrochloride]
0.43 µM | CC(=O)Nc1ccc(C2C[N+](C)(C)Cc3c(Cl)cc(Cl)cc32)cc1 (single isomer, unassigned; (+)) [Example 3c, (+)-4-(4-Acetylaminophenyl)-6,8-dichloro-2,2-dimethyl-1,2,3,4-tetrahydroisoquinolinium chloride]
